The values below come from patent US5932707A, “Thioether-containing metal chelating compounds” (Nycomed Amersham plc, priority 1993, dated 1999).

A short description of data set [1]: Human plasma protein binding of technetium complexes (ultrafiltration). It counts as in vitro ADME. As to conditions: technetium complex, read-out: PPB % bound (converted). The procedure: Human plasma protein binding was determined by ultrafiltration^(9), such that the percentage of complex bound is an indicator of the affinity of binding.
The plasma protein binding figure obtained for a given compound is highly dependent on the method of determination used^(10). Thus equilibrium dialysis measurement may lead to higher PPB figures than those obtained via ultrafiltration due to longer incubation times. Use of serum rather than plasma may also underestimate the true extent of binding. There are also significant interspecies differences.

For data set [2] the following is noted: neutral lipophilic technetium complex; cited from earlier work.
Data set [3] relates to V79-379A Chinese hamster cells. As to the kind of experiment: Hypoxic and oxic binding of 99mTc labelled compounds to cells in vitro. It counts as cell-based. Conditions: 99mTc complex; for Oxic SN (supernatant): air +5% CO2; for Oxic pellet: air +5% CO2, 37° C.; for Oxic pellet / Hypoxic pellet: 10^6 cells per pellet; for Hypoxic SN (supernatant): nitrogen +5% CO2; for Hypoxic pellet: nitrogen +5% CO2, 37° C. On the procedure:
V79-379A Chinese hamster cells were harvested from exponential suspension culture and resuspended at 1.1×10^6 cells cm^-3 in Bagle's MEM. 20 cm^3 of cells were transferred to small spinner vessels and gassed with either air +5% CO2 (oxic) or nitrogen +5% CO2 (Hypoxic) at 37° C. After 30 minutes, between 0.5 cm^3 and 1 cm^3 of ^99m Tc labelled compound was added. At timed intervals 1 cm^3 of cell suspension was withdrawn from each flask and chilled on ice in small polystyrene centrifuge tubes. The cells were centrifuged and washed three times in ice-cold medium (Eagle's MEM) to give constant counts in the cell pellet. The pellets were counted in LKB 1282 Compugamma counter. The initial supernatant was diluted 1 in 100 with saline and 1 cm^3 was counted. All samples were counted at the end of the incubation period and counts have been corrected for decay during counting but not for decay during incubation.
Attempts were made to decrease the amount of non-specific binding by incubating the cell samples in a large volume of medium for one hour at 37° C. under oxic conditions.

The subject of another data set is human erythrocyte ghosts. The data set can be described thus: Red cell ghost (RCG) uptake. Conditions: for RCG uptake: technetium complex, human erythrocyte ghosts. It is filed as in vitro ADME. On the procedure:
RCG uptake is determined by incubation of a fixed amount of labelled complex with a range of ghost concentrations. The percentage of labelled complex […] is calculated for each ghost concentration to yield a single uptake figure expressed as %/mg protein.

The nature of data set [4]: Stability when handled in air. It counts as physicochemical.

Molecules are shown by their SMILES.

For the molecule `CC(C)(S)CNCCNCC(C)(C)S` [BAT, reference compound], the fraction unbound in data set [1] was 0.38. In addition, the blood-brain barrier passage result in data set [2] is recorded as “can cross the blood-brain barrier”.

In the case of `CC(=O)NCSCC(NCC(O)Cn1ccnc1[N+](=O)[O-])C(=O)NCC(=O)NCCN(C)C` (stereo not drawn) [HL11P], the “Hypoxic:oxic ratio” value in data set [3] (0.5 hrs) is on record as 5.79; in data set [3] (1.0 hrs), 2.91; in data set [3] (2.0 hrs) it was 3.86; in data set [3] (3.0 hrs), 3.60; in data set [3] (4.0 hrs) it was 5.07; in data set [3] (5.0 hrs), 3.26. Further, the “Oxic SN (supernatant)” value is listed as 25.1 cpm/ml (10^-7) in data set [3] (0.5 hrs); 24.9 cpm/ml (10^-7) in data set [3] (1.0 hrs); 25.5 cpm/ml (10^-7) in data set [3] (2.0 hrs); 25.6 cpm/ml (10^-7) in data set [3] (3.0 hrs); 26.0 cpm/ml (10^-7) in data set [3] (4.0 hrs); 25.7 cpm/ml (10^-7) in data set [3] (5.0 hrs). Further, the Oxic pellet in data set [3] (0.5 hrs) is 0.42 cpm (×10^-5); in data set [3] (1.0 hrs), 0.71 cpm (×10^-5); in data set [3] (2.0 hrs), 0.99 cpm (×10^-5); in data set [3] (3.0 hrs), 1.18 cpm (×10^-5); in data set [3] (4.0 hrs), 1.40 cpm (×10^-5); in data set [3] (5.0 hrs) it was 1.63 cpm (×10^-5). Moreover, the “Hypoxic SN (supernatant)” value in data set [3] (0.5 hrs) is 22.2 cpm/ml (10^-7); in data set [3] (1.0 hrs), 22.3 cpm/ml (10^-7); in data set [3] (2.0 hrs), 22.2 cpm/ml (10^-7); in data set [3] (3.0 hrs), 22.4 cpm/ml (10^-7); in data set [3] (4.0 hrs), 22.8 cpm/ml (10^-7); in data set [3] (5.0 hrs), 22.7 cpm/ml (10^-7). The Hypoxic pellet in data set [3] (0.5 hrs) is 2.15 cpm (×10^-5); in data set [3] (1.0 hrs), 1.85 cpm (×10^-5); in data set [3] (2.0 hrs), 3.33 cpm (×10^-5); in data set [3] (3.0 hrs), 3.72 cpm (×10^-5); in data set [3] (4.0 hrs), 6.22 cpm (×10^-5); in data set [3] (5.0 hrs), 4.70 cpm (×10^-5).

Turning to `CC(=O)NCCNC(=O)CSCCSC1CCCCO1` (stereo not drawn) [HL15P, N-(2-Acetylaminoethyl)-2-(tetrahydropyran-2-ylthio)ethylthioacetamide], the RCG uptake in the data set with human erythrocyte ghosts stood at 1.6 %/mg protein. The fraction unbound in data set [1] is 1.

For the molecule `CC(=O)NCCNC(=O)CCSCCSC1CCCCO1` (stereo not drawn) [HL49, N-(2-acetylaminoethyl)-3-[2-(tetrahydropyran-2-ylthio)ethylthio]propionamide], the RCG uptake in the data set on human erythrocyte ghosts stood at 3.6 %/mg protein. In addition, the fraction unbound in data set [1] is 0.82.

The molecule `CC(=O)NCCCNC(=O)CSCCSC1CCCCO1` (stereo not drawn) [HL60P, N-(3-acetylamino)propyl-2-(tetrahydropyran-2-ylthio)ethylthioacetamide] showed an RCG uptake with human erythrocyte ghosts of 1.1 %/mg protein. Moreover, the fraction unbound in data set [1] was 1.

As to `CC(=O)NCCNC(=O)CSCCS` [HL 15D, N-(2-Acetylaminoethyl)-2-mercaptoethylthioacetamide], in data set [4], the “tendency to oxidise to the corresponding disulphide” value is “tended to oxidise to the corresponding disulphide if handled in air”.

`CC(=NO)C(C)(C)NCCCNC(C)(C)C(C)=NO` [PnAO, reference compound] came in with an RCG uptake in the data set with human erythrocyte ghosts of 6.7 %/mg protein. Moreover, the fraction unbound in data set [1] was 0.25.

In the case of `O=C([O-])CN(CCN(CC(=O)[O-])CC(=O)[O-])CCN(CC(=O)[O-])CC(=O)[O-].[99Tc+4]` [^99m Tc-DTPA, reference compound], in the data set on human erythrocyte ghosts (99mTc complex), the “RCG uptake (in words)” value is given as “excluded from the ghosts”.
